Data: patent US10800792B2, “Inhibitors of Bruton's tyrosine kinase and method of their use” (JANSSEN PHARMACEUTICA NV, priority 2015, dated 2020)

Biological target: unphosphorylated-BTK kinase domain (UP-BTK), GST-tagged human BTK (389-659aa) (Homo sapiens (Human), UniProt Q06187)
Experiment: BTK kinase Lanthascreen binding assay
Conditions: pIC50 = negative log of the IC50 in molar
In short: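 Values are pIC50, i.e. negative log of IC50 in molar, derived from concentration–response fitting. Each compound competes with a fluorescently labelled tracer for the unphosphorylated kinase domain.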

[1] = unphosphorylated-BTK kinase domain, 50 nM Tracer 236, 60 minutes
[2] = Lanthascreen tracer competition, 60 minutes incubation

unphosphorylated-BTK kinase domain (UP-BTK), GST-tagged human BTK (389-659aa), sequence (Q06187 389-659): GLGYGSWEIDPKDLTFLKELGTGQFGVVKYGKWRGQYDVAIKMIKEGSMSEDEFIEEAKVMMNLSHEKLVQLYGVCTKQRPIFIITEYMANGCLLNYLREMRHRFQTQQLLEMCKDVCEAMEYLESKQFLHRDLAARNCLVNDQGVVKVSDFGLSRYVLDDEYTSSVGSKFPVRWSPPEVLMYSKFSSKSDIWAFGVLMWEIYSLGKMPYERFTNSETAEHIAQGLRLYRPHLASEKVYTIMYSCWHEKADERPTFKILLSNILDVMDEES

| Structure (SMILES) | BTK_I_binding pIC50 [1] | BTK_I_binding pIC50 [2] | also measured |
| --- | --- | --- | --- |
| CNCC(=O)N1CCC[C@@H](NC(=O)c2sc3nccc4c3c2NC(=O)N4c2ccc(Oc3ccccc3)c(Cl)c2)C1 [Example 575, (R)-5-(3-Chloro-4-phenoxyphenyl)-N-(1-(2-(methylamino)acetyl)piperidin-3-yl)-4-oxo-4,5-dihydro-3H-1-thia-3,5,8-triazaacenaphthylene-2-carboxamide] | 7.3 | – | – |
| O=C(N[C@@H]1CCNC1)c1sc2nccc3c2c1NC(=O)N3c1ccc(Oc2ccccc2)c(Cl)c1 [Example 577, (R)-5-(3-Chloro-4-phenoxyphenyl)-4-oxo-N-(pyrrolidin-3-yl)-4,5-dihydro-3H-1-thia-3,5,8-triazaacenaphthylene-2-carboxamide] | 7.2 | – | – |
| O=C1CCC(NC(=O)c2sc3nccc4c3c2NC(=O)N4c2ccc(Oc3ccccc3)cc2)CN1 (centres unmarked) [Example 578, 4-Oxo-N-(6-oxopiperidin-3-yl)-5-(4-phenoxyphenyl)-4,5-dihydro-3H-1-thia-3,5,8-triazaacenaphthylene-2-carboxamide] | 6.9 | – | – |
| Cc1cc(N2C(=O)Nc3c(C(=O)N[C@@H]4CCCNC4)sc4nccc2c34)ccc1Oc1ccccc1 [Example 583, (R)-5-(3-Methyl-4-phenoxyphenyl)-4-oxo-N-(piperidin-3-yl)-4,5-dihydro-3H-1-thia-3,5,8-triazaacenaphthylene-2-carboxamide] | 6.7 | – | – |
| O=C(N[C@@H]1CCCNC1)c1sc2nccc3c2c1NC(=O)N3c1ccnc(-c2ccccc2)c1 [Example 585, (R)-4-Oxo-5-(2-phenylpyridin-4-yl)-N-(piperidin-3-yl)-4,5-dihydro-3H-1-thia-3,5,8-triazaacenaphthylene-2-carboxamide] | 6.5 | – | – |
| O=C(N[C@H]1CNC[C@H](O)C1)c1sc2nccc3c2c1NC(=O)N3c1ccc(Oc2ccccc2)cc1 [Example 586, N-((3R,5R)-5-Hydroxypiperidin-3-yl)-4-oxo-5-(4-phenoxyphenyl)-4,5-dihydro-3H-1-thia-3,5,8-triazaacenaphthylene-2-carboxamide] | – | – | IC50 (unphosphorylated-BTK kinase domain, 50 nM Tracer 236, 60 minutes, read-out: BTK_I_binding pIC50 (converted)): 0.251 µM |
| CO[C@H]1CNC[C@@H]1NC(=O)c1sc2nccc3c2c1NC(=O)N3c1ccc(Oc2ccccc2)cc1 [Example 588, N-((3S,4S)-4-Methoxypyrrolidin-3-yl)-4-oxo-5-(4-phenoxyphenyl)-4,5-dihydro-3H-1-thia-3,5,8-triazaacenaphthylene-2-carboxamide] | 6.4 | – | – |
| O=C(N[C@@H]1CCCN(C(=O)/C=C/CO)C1)c1sc2nccc3c2c1NC(=O)N3c1ccc(Oc2ccccc2)cc1 [Example 590, (R,E)-N-(1-(4-Hydroxybut-2-enoyl)piperidin-3-yl)-4-oxo-5-(4-phenoxyphenyl)-4,5-dihydro-3H-1-thia-3,5,8-triazaacenaphthylene-2-carboxamide] | – | 7.5 | – |
| COCCC(=O)N1CCC[C@@H](NC(=O)c2sc3nccc4c3c2NC(=O)N4c2ccc(Oc3ccccc3)cc2)C1 [Example 593, (R)—N-(1-(3-Methoxypropanoyl)piperidin-3-yl)-4-oxo-5-(4-phenoxyphenyl)-4,5-dihydro-3H-1-thia-3,5,8-triazaacenaphthylene-2-carboxamide] | – | 7.2 | – |
| N#CN1CCC(NC(=O)c2sc3nccc4c3c2NC(=O)N4c2ccc(Oc3ccccc3)cc2)CC1 [Example 594, N-(1-Cyanopiperidin-4-yl)-4-oxo-5-(4-phenoxyphenyl)-4,5-dihydro-3H-1-thia-3,5,8-triazaacenaphthylene-2-carboxamide] | – | 7.1 | – |
| O=C(NC1CCN(C(=O)/C=C/CO)CC1)c1sc2nccc3c2c1NC(=O)N3c1ccc(Oc2ccccc2)cc1 [Example 596, (E)-N-(1-(4-Hydroxybut-2-enoyl)piperidin-4-yl)-4-oxo-5-(4-phenoxyphenyl)-4,5-dihydro-3H-1-thia-3,5,8-triazaacenaphthylene-2-carboxamide] | – | 6.9 | – |
| C=CC(=O)N1CCC[C@@H](NC(=O)c2sc3nccc4c3c2NC(=O)N4c2cccc(OC3CCC3)c2)C1 [Example 598] | – | 6.5 | – |
| O=C(N[C@@H]1CCNC1)c1sc2nccc3c2c1NC(=O)N3c1cccc(-c2ccccc2)c1 [Example 599, (R)-5-([1,1′-Biphenyl]-3-yl)-4-oxo-N-(pyrrolidin-3-yl)-4,5-dihydro-3H-1-thia-3,5,8-triazaacenaphthylene-2-carboxamide] | – | 6.5 | – |
| C=CC(=O)N1CCCC(Nc2sc3nccc4c3c2NC(=O)N4c2ccc(Oc3ccccc3)cc2C)C1 (centres unmarked) [Example 600, 2-((1-Acryloylpiperidin-3-yl)amino)-5-(2-methyl-4-phenoxyphenyl)-3H-1-thia-3,5,8-triazaacenaphthylen-4(5H)-one] | – | 6.5 | – |
| CNCC(=O)N1CC[C@@H](NC(=O)c2sc3nccc4c3c2NC(=O)N4c2cccc(-c3ccccc3)c2)C1 [Example 601, (R)-5-([1,1′-Biphenyl]-3-yl)-N-(1-(2-(methylamino)acetyl)pyrrolidin-3-yl)-4-oxo-4,5-dihydro-3H-1-thia-3,5,8-triazaacenaphthylene-2-carboxamide] | – | 6.4 | – |
| O=C(N[C@@H]1CCCNC1)c1sc2nccc3c2c1NC(=O)N3c1cccc(C2CCC2)c1 [Example 603, (R)-5-(3-Cyclobutylphenyl)-4-oxo-N-(piperidin-3-yl)-4,5-dihydro-3H-1-thia-3,5,8-triazaacenaphthylene-2-carboxamide] | – | 6.3 | – |

Now from value to molecule, other results behind:

| BTK_I_binding pIC50 [1] | BTK_I_binding pIC50 [2] | Structure (SMILES) | also measured |
| --- | --- | --- | --- |
| 7.3 | – | COCC(=O)N1CCC[C@@H](NC(=O)c2sc3nccc4c3c2NC(=O)N4c2ccc(Oc3ccccc3)cc2)C1 [Example 576, (R)—N-(1-(2-Methoxyacetyl)piperidin-3-yl)-4-oxo-5-(4-phenoxyphenyl)-4,5-dihydro-3H-1-thia-3,5,8-triazaacenaphthylene-2-carboxamide] | – |
| 6.9 | – | O=C(N[C@H]1CNC[C@@H]1F)c1sc2nccc3c2c1NC(=O)N3c1ccc(Oc2ccccc2)cc1 [Example 579, N-((3S,4S)-4-Fluoropyrrolidin-3-yl)-4-oxo-5-(4-phenoxyphenyl)-4,5-dihydro-3H-1-thia-3,5,8-triazaacenaphthylene-2-carboxamide] | – |
| 6.9 | – | Cc1ccc(-c2cccc(N3C(=O)Nc4c(C(=O)N[C@@H]5CCCNC5)sc5nccc3c45)c2)cc1 [Example 580, (R)-5-(4′-Methyl-[1,1′-biphenyl]-3-yl)-4-oxo-N-(piperidin-3-yl)-4,5-dihydro-3H-1-thia-3,5,8-triazaacenaphthylene-2-carboxamide] | – |
| 6.8 | – | O=C(N[C@@H]1CCCNC1)c1sc2nccc3c2c1NC(=O)N3c1ccc(Oc2ccccc2)c(Cl)c1 [Example 581, (R)-5-(3-Chloro-4-phenoxyphenyl)-4-oxo-N-(piperidin-3-yl)-4,5-dihydro-3H-1-thia-3,5,8-triazaacenaphthylene-2-carboxamide] | – |
| 6.7 | – | CC(=O)N1CCC[C@@H](NC(=O)c2sc3nccc4c3c2NC(=O)N4c2ccc(Oc3ccccc3)c(Cl)c2)C1 [Example 582, (R)—N-(1-Acetylpiperidin-3-yl)-5-(3-chloro-4-phenoxyphenyl)-4-oxo-4,5-dihydro-3H-1-thia-3,5,8-triazaacenaphthylene-2-carboxamide] | – |
| 6.6 | – | C=CC(=O)N1CCC[C@@H](NC(=O)c2sc3nccc4c3c2NC(=O)N4c2ccc(C)c(Cl)c2)C1 [Example 584, (R)—N-(1-Acryloylpiperidin-3-yl)-5-(3-chloro-4-methylphenyl)-4-oxo-4,5-dihydro-3H-1-thia-3,5,8-triazaacenaphthylene-2-carboxamide] | – |
| 6.5 | – | CN1CC[C@@H](NC(=O)c2sc3nccc4c3c2NC(=O)N4c2cccc(-c3ccccc3)c2)C1 [Example 587, (R)-5-([1,1′-Biphenyl]-3-yl)-N-(1-methylpyrrolidin-3-yl)-4-oxo-4,5-dihydro-3H-1-thia-3,5,8-triazaacenaphthylene-2-carboxamide] | – |
| – | 7.5 | C=CC(=O)N1CCC[C@@H](NC(=O)c2sc3nccc4c3c2NC(=O)N4c2ccnc(C3CCC3)c2)C1 [Example 591, (R)—N-(1-Acryloylpiperidin-3-yl)-5-(2-cyclobutylpyridin-4-yl)-4-oxo-4,5-dihydro-3H-1-thia-3,5,8-triazaacenaphthylene-2-carboxamide] | – |
| – | 7.4 | N#CN1CCC[C@@H](NC(=O)c2sc3nccc4c3c2NC(=O)N4c2ccc(Oc3ccccc3)cc2)C1 [Example 592, (R)—N-(1-Cyanopiperidin-3-yl)-4-oxo-5-(4-phenoxyphenyl)-4,5-dihydro-3H-1-thia-3,5,8-triazaacenaphthylene-2-carboxamide] | – |
| – | 7.1 | Cc1cc(Oc2ccccc2)cnc1N1C(=O)Nc2c(C(=O)N[C@@H]3CCCNC3)sc3nccc1c23 [Example 595, (R)-5-(3-Methyl-5-phenoxypyridin-2-yl)-4-oxo-N-(piperidin-3-yl)-4,5-dihydro-3H-1-thia-3,5,8-triazaacenaphthylene-2-carboxamide] | – |
| – | 6.9 | COCCC(=O)N1CCC(NC(=O)c2sc3nccc4c3c2NC(=O)N4c2ccc(Oc3ccccc3)cc2)CC1 [Example 597, N-(1-(3-Methoxypropanoyl)piperidin-4-yl)-4-oxo-5-(4-phenoxyphenyl)-4,5-dihydro-3H-1-thia-3,5,8-triazaacenaphthylene-2-carboxamide] | – |
| – | 6.4 | O=C(N[C@@H]1CCNC1)c1sc2nccc3c2c1NC(=O)N3c1ccnc(-c2ccccc2)c1 [Example 602, (R)-4-Oxo-5-(2-phenylpyridin-4-yl)-N-(pyrrolidin-3-yl)-4,5-dihydro-3H-1-thia-3,5,8-triazaacenaphthylene-2-carboxamide] | – |
| – | 6.3 | C=CC(=O)N1CCC[C@@H](NC(=O)c2sc3nccc4c3c2NC(=O)N4c2cccc(-c3ccccc3)n2)C1 [Example 604, (R)—N-(1-Acryloylpiperidin-3-yl)-4-oxo-5-(6-phenylpyridin-2-yl)-4,5-dihydro-3H-1-thia-3,5,8-triazaacenaphthylene-2-carboxamide] | – |
